From article PMC7179259, “Safety, Tolerability, Pharmacokinetics, and Antimalarial Activity of the Novel Plasmodium Phosphatidylinositol 4-Kinase Inhibitor MMV390048 in Healthy Volunteers” (Antimicrobial Agents and Chemotherapy, 2020)
Like-named read-outs stand apart in the source and are kept apart here.

Tests used:
P. falciparum = test system: P. falciparum; design: method as in PMID 28446690; details: humanized SCID mice infected with P. falciparum; cited from earlier work
[1] = First-in-human single-ascending-dose study: plasma pharmacokinetics; assay type: in vivo; details: for half-life / Tmax / AUC(0-inf) / Cmax / Vd/F: human, plasma; for Vd/F: read-out: Vz/F
Method: (i) First-in-human study. The study was conducted in five fasted cohorts (5, 20, 40, 80, and 120 mg) and one fed 40-mg cohort. The initial dose of 5 mg was chosen in agreement with guidelines on dose selection for first-in-human clinical studies ([15], [16]) and was based on the no-observed-adverse-event level for the most sensitive species observed in preclinical toxicology studies. Doses administered to subsequent cohorts were determined a priori after consideration of interim human pharmacokinetic and safety data.
All subjects in the fasted cohorts were dosed on day 1 after a fasting period of ≥8 h. Water was prohibited from 2 h predose and then allowed ad libitum from 2 h postdose, and standardized meals were provided from 4 h postdose. In the first two cohorts (5 and 20 mg), a sentinel subcohort (n = 2) was dosed on day 1. The safety review team reviewed safety and pharmacokinetic data of these subjects up to day 3 before dosing the rest of these two cohorts and up to day 19 for all cohorts before dose escalation. […] Selected subjects from the fasted cohorts then received 40 mg in a fed state to evaluate the effect of food on the tolerability and pharmacokinetic profile of MMV390048. […] The predose breakfast was in line with FDA guidelines ([13]) and was composed of approximately 800 to 1,000 calories (cal), with 150, 250, and 500 to 600 cal from protein, carbohydrate, and fat, respectively.
Blood samples from the three studies were analyzed at the University of Cape Town Division of Clinical Pharmacology Laboratory. MMV390048 was extracted from plasma using a protein precipitation procedure and analyzed using a liquid chromatography-tandem mass spectrometry assay. The precision (total assay coefficients of variation) for MMV390048 during sample analysis was less than 8% at all quality control levels, including the limit of quantification, which was 0.5 ng ml^−1. The full details of the assay are included in the supplemental material.
Noncompartmental pharmacokinetic analysis was performed using Phoenix WinNonlin Pro version 6.3 (Certara L.P., St. Louis, MO, USA) for the first-in-human and the formulation optimization studies, and using R version 3.2.0 for the IBSM study. Pharmacokinetic endpoints were the peak plasma concentration (Cmax), time at which Cmax is reached (Tmax), area under the concentration-time curve from 0 h to infinity (AUC0–inf), elimination half-life (t½), apparent clearance (CL/F), and apparent volume of distribution (Vz/F).

healthy subjects = test: Formulation optimization study: safety; assay type: in vivo, human; details: both tablet formulations
Method: The third study was a formulation optimization study to test two MMV390048 tablet formulations (tartaric acid and Syloid). The formulation optimization study was conducted at Richmond Pharmacology Ltd. (London, United Kingdom) from 17 September to 28 October 2015. This was a phase 1, open-label, single-dose, parallel-group, two-cohort design study.
(iii) Formulation optimization study. Subjects received one of two tablet formulations (formulation A, tartaric acid tablets; formulation B, Syloid tablets; manufactured by Quotient Clinical, United Kingdom) on day 1, after an ≥8-h fasting period, at a dose of 40 mg with 240 ml of water. Subjects were followed up until day 29.
Safety endpoints were the incidence, severity, and relationship to the investigational product (and inoculum for the IBSM study) of observed and self-reported adverse events (AEs), and changes from baseline in physical examination, vital signs, standard electrocardiograms (ECGs), continuous ECGs (first-in-human study only), and laboratory evaluation (hematology, coagulation parameters, hemolysis panel, clinical chemistry, and urinalysis) findings. […] AE severity was evaluated according to the Common Terminology Criteria for Adverse Events version 4.03 ([18]) and the World Health Organization recommendations for grading acute and subacute toxic effects ([19]).

[2] = Stability of stock solutions in dimethylsulfoxide; assay type: physicochemical
From the text: page 28: Determination of MMV390048 from 50 µ L human plasma by LC -MS/MS A method was validated for the quantification of MMV390048 in human plasma, and consisted of a protein precipitation extraction, followed by high performance liquid chromatography with MS/MS detection. MMV390048- d3 was used as the internal standard. Analyte mean extraction yield was approximately 106.5 % (CV% = 6.2). The extraction procedure was followed by liquid chromatographic separation using a Waters Atlantis T3 3 μm, 100 x 2.1 mm analytical column. An isocratic mobile phase containing water:acetonitrile (25:75 [v/v]) was used at a flow-rate of 300 μL/min. The retention times for MMV390048 and MMV390048- d3 were 1.16 min and 1.16 min, respectively. An AB Sciex API 4000 mass spectrometer at unit resolution in the multiple reaction monitoring mode was used to monitor the transition of the protonated precursor ions, 394.145 m/z and 397.148 m/z, to the product ions, 297.0 m/z and 297.0 m/z, for MMV390048 and the internal standard, respectively. Electro -spray ionisation was used for ion production. Accuracy and precision were assessed over three consecutive, independent runs. The calibration curve fits a quadratic (weighted by 1/x) regressions for MMV390048 over the ranges 0.500 –2000 ng/mL, based on peak area ratios. The assay was successfully cross- validated on a second/back- up API 4000 instrument. […]

[3] = design: method as in PMID 28446690; details: predicted for humans; cited from earlier work
[4] = po, 5 mg, single oral 5 mg fasted, powder-in-bottle, n = 6, geometric mean (CV %)
[5] = po, 20 mg, single oral 20 mg fasted, powder-in-bottle, n = 6, geometric mean (CV %)
[6] = po, 40 mg, single oral 40 mg FED (high-fat breakfast), powder-in-bottle, n = 6, geometric mean (CV %)
[7] = po, 40 mg, single oral 40 mg fasted, powder-in-bottle, n = 6, geometric mean (CV %)
[8] = po, 80 mg, single oral 80 mg fasted, powder-in-bottle, n = 6, geometric mean (CV %)
[9] = po, 120 mg, single oral 120 mg fasted, powder-in-bottle, n = 5, geometric mean (CV %)

## CS(=O)(=O)c1ccc(-c2cnc(N)c(-c3ccc(C(F)(F)F)nc3)c2)cc1 [MMV390048]
P. falciparum
  effective concentration to achieve 90% of the maximal kill rate (EC90): 0.16 µg/mL
[1]; oral, all cohorts, powder-in-bottle, read-out: elimination half-life
  half-life: > 149 h
[1]; oral, fasted cohorts, read-out: median time of maximum concentration (Tmax)
  Tmax: 1 to 2.5 h
[1]; [4]
  AUC(0-inf): 2140 ng·h/mL
  Cmax: 15.6 ng/mL
  Vd/F: 520 L
[1]; po, 5 mg, single oral 5 mg fasted, powder-in-bottle, n = 6, geometric mean (CV %), read-out: t1/2 (converted)
  half-life: 154 h
[1]; po, 5 mg, single oral 5 mg fasted, powder-in-bottle, n = 6, median (range), read-out: Tmax
  Tmax: 1 h
[1]; [5]
  AUC(0-inf): 33300 ng·h/mL
  Cmax: 136 ng/mL
  Vd/F: 266 L
[1]; po, 20 mg, single oral 20 mg fasted, powder-in-bottle, n = 6, geometric mean (CV %), read-out: t1/2 (converted)
  half-life: 306 h
[1]; po, 20 mg, single oral 20 mg fasted, powder-in-bottle, n = 6, median (range), read-out: Tmax
  Tmax: 2 h
[1]; [6]
  AUC(0-inf): 34500 ng·h/mL
  Cmax: 155 ng/mL
  Vd/F: 373 L
[1]; po, 40 mg, single oral 40 mg FED (high-fat breakfast), powder-in-bottle, n = 6, geometric mean (CV %), read-out: t1/2 (converted)
  half-life: 223 h
[1]; po, 40 mg, single oral 40 mg FED (high-fat breakfast), powder-in-bottle, n = 6, median (range), read-out: Tmax
  Tmax: 4 h
[1]; [7]
  AUC(0-inf): 17600 ng·h/mL
  Cmax: 74.4 ng/mL
  Vd/F: 624 L
[1]; po, 40 mg, single oral 40 mg fasted, powder-in-bottle, n = 6, geometric mean (CV %), read-out: t1/2 (converted)
  half-life: 190 h
[1]; po, 40 mg, single oral 40 mg fasted, powder-in-bottle, n = 6, median (range), read-out: Tmax
  Tmax: 2.5 h
[1]; [8]
  AUC(0-inf): 62000 ng·h/mL
  Cmax: 238 ng/mL
  Vd/F: 444 L
[1]; po, 80 mg, single oral 80 mg fasted, powder-in-bottle, n = 6, geometric mean (CV %), read-out: t1/2 (converted)
  half-life: 239 h
[1]; po, 80 mg, single oral 80 mg fasted, powder-in-bottle, n = 6, median (range), read-out: Tmax
  Tmax: 1 h
[1]; [9]
  AUC(0-inf): 82600 ng·h/mL
  Cmax: 518 ng/mL
  Vd/F: 432 L
[1]; po, 120 mg, single oral 120 mg fasted, powder-in-bottle, n = 5, geometric mean (CV %), read-out: t1/2 (converted)
  half-life: 206 h
[1]; po, 120 mg, single oral 120 mg fasted, powder-in-bottle, n = 5, median (range), read-out: Tmax
  Tmax: 1 h
[1]; single oral 5 mg fasted, powder-in-bottle, n = 6, geometric mean (CV %)
  CL/F: 2.3 (76.3) liters h^−1
[1]; single oral 20 mg fasted, powder-in-bottle, n = 6, geometric mean (CV %)
  CL/F: 0.6 (17.1) liters h^−1
[1]; single oral 40 mg FED (high-fat breakfast), powder-in-bottle, n = 6, geometric mean (CV %)
  CL/F: 1.2 (67.5) liters h^−1
[1]; single oral 40 mg fasted, powder-in-bottle, n = 6, geometric mean (CV %)
  CL/F: 2.3 (86.8) liters h^−1
[1]; single oral 80 mg fasted, powder-in-bottle, n = 6, geometric mean (CV %)
  CL/F: 1.3 (46.0) liters h^−1
[1]; single oral 120 mg fasted, powder-in-bottle, n = 5, geometric mean (CV %)
  CL/F: 1.5 (165.8) liters h^−1
Healthy subjects; 18 subjects
  total AEs reported: 11
Healthy subjects; of 18 subjects
  subjects with AEs: 7
[2]; room temperature, 4°C and -20°C
  stock solution in dimethylsulfoxide stable for: 24 h
[2]; stored at -80°C
  stock solution in dimethylsulfoxide stable for: 1610 h
[3]
  elimination half-life in humans predicted from preclinical studies: 90 h
